Source: US20130261191A1, “USE OF ESSENTIAL OIL COMPOUNDS AS HISTOMONASTAT” (DSM IP ASSETS B.V., priority 2007, published 2013)

Test system: Histomonas meleagridis
Assay: In vitro lethal activity (minimal lethal concentration) towards Histomonas meleagridis culture, Trypan blue vital coloration
Type: cell-based
Conditions: lowest dilution in which no live organisms were observed; H. meleagridis culture 10^6 parasites/ml, 39° C., anaerobic
Protocol: The in vitro activity of the several essential oil compounds was assessed using the following technique. Aliquots of 1 ml of H. meleagridis culture (10^6 parasites/ml) were incubated anaerobicaly for 24 h at 39° C. Twelve two-fold dilutions of a stock solution of each compound were prepared in 96-well U bottom plates (Prolabo, Lyon, France) in Tween 80 (Sigma, L'Isle d'Abeau, France) and added to the parasites. The initial dilution was 2% ([…]). After incubation for 24 h and 48 h, the number of live parasite in each culture was estimated by vital coloration with Trypan blue 0.4% (Gibco, BRL Life technology, Cergy Pontoise, France). The lowest dilution in which no live organisms were observed was defined as the minimal lethal concentration (MLC).

| SMILES | minimal lethal concentration (MLC) [ppm] |
| --- | --- |
| Cc1ccc(C(C)C)cc1 [cymene, p-] | 500 |
| C=CC(C)(O)CCC=C(C)CCC=C(C)C (stereo not drawn) [nerolidol] | 125 |
| O=C/C=C/c1ccccc1 [cinnamaldehyde, trans-] | 250 |
